In patent publication US7786257B2, “Signal-1/signal-2 bifunctional peptide inhibitors” (priority 2000, dated 2010) one finds IFN-γ production, IL-4 production increase and IL-4 production data, which are given here for one substance.

Where no end group is shown, it is not given here. [ ]: non-standard residue; d: D form. Ahx = NCCCCCC(=O)O

The subject of the assay is T-cells from NOD mice. As to the kind of experiment: ELISPOT of IL-4 and IFN-γ release by T-cells from treated NOD mice (TH1/TH2 frequency). The class given is in vivo, mouse. From the text: Groups of 3-5 NOD mice were immunized subcutaneously (s.c.) with the GAD 65 peptide in CFA (40 nanomoles/mouse) at the tail base. Different groups received either the EGAD-BPI, its single TCR epitope (Signal-1 moiety), or its CD11a peptide (Signal-2 moiety) i.v. (all 40 nanomoles/mouse). After 6-8 days, another identical 40 nanomole injection was given to each mouse, and the next day lymph nodes draining the site of the s.c. injection were made into single cell suspensions for culture. Identical primary cultures were incubated for 96 hours; then, viable T-cells were recovered by density gradient centrifugation. One million of these cells were combined in nitrocellulose-bottomed 96-well plates (Millititer-HA, Millipore, Bedford, Mass.), previously coated (50 μl/well) with mAb to either mouse IFNγ (clone R4-6A2), or mouse IL-4 (clone BVD4-1D11) at a concentration of 10 μg/ml in PBS. Groups of triplicate cultures were incubated with either Concanavalin-A (2 μg/ml), or the Signal-1 peptide moiety plus 20 U/ml recombinant IL2 (R & D Systems). After 72-96 hours of culture at 37° C. and 5% CO2, plates were washed three times with PBS-0.05% Tween-20. In appropriate wells are added biotinylated anti-IFNγ (clone XMG1.2) or biotinylated anti-IL-4 (clone BVD6-24G2) at a concentration of 1 μg/ml and incubated for 1 hour at room temperature. Positive control wells receive known TH1 or TH2 clones in place of normal T-cells. MAb pairs to IL12, IL10, and IL2 are also available and will be used to test for these cytokines in the same assay. All mAb and recombinant controls are purchased from PharMingen (San Diego, Calif.). Finally, plates were washed three times with PBS-Tween, and then exposed to 100 μl of a 1:2000 dilution of streptavidin alkaline phosphatase (Jackson ImmunoResearch, West Grove, Pa.) for 1 h and washed as before. […]

As to “GAD65(208-217)-[Ac-G-Ac-G-Ac]-CD11a (237-247) (EIAPVFVLLE[Ahx]G[Ahx]G[Ahx]ITDGEATDSG) [EGAD-BPI]”, the IFN-γ production result (T-cells from treated animals stimulated in vitro with mitogen) was “also increased, although to a lesser extent”. Also, the IL-4 production increase result (T-cells from treated animals stimulated in vitro with mitogen, versus saline control, 40 nanomoles/mouse i.v. twice) was “approximately 10 fold”. For the same substance, where the note is “treated NOD mice versus control mice”, the IL-4 production result was “abundant IL-4”.
